Source: ChEMBL document CHEMBL1130772, “New nonsteroidal androgen receptor modulators based on 4-(trifluoromethyl)-2(1H)-pyrrolidino[3,2-g] quinolinone” (Bioorg Med Chem Lett, 1998)
pIC50, pKi: −log10 of the molar value.

Legend:
[1] = biological target: T1, Glucocorticoid receptor (Homo sapiens) (UniProt P04150); assay: Antagonistic activity against Glucocorticoid receptor in co-transfected CV-1 cell; format: functional, cell-based
T1 sequence (whole entry): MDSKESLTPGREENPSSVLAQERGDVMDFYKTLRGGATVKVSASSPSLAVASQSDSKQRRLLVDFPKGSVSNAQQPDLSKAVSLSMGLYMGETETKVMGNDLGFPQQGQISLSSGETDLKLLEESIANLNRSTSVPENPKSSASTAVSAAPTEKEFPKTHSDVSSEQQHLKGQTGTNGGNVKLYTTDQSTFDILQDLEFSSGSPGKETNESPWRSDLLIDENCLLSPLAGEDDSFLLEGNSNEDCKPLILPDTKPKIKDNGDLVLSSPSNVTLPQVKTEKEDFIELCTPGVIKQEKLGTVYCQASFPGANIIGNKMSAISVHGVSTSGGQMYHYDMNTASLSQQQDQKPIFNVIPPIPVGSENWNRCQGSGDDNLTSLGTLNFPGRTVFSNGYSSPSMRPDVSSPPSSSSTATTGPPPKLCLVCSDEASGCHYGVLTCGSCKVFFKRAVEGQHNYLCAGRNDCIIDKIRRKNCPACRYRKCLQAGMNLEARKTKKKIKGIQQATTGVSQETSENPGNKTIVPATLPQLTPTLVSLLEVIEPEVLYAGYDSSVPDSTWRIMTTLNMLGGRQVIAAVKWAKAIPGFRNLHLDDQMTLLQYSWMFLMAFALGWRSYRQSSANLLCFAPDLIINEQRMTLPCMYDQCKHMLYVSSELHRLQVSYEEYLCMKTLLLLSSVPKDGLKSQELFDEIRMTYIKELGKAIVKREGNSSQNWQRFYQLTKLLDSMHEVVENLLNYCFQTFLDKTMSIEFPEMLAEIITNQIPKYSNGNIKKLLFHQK

[2] = biological target: T2, Androgen receptor (Homo sapiens, UniProt P10275)
T2 sequence (P10275 whole entry): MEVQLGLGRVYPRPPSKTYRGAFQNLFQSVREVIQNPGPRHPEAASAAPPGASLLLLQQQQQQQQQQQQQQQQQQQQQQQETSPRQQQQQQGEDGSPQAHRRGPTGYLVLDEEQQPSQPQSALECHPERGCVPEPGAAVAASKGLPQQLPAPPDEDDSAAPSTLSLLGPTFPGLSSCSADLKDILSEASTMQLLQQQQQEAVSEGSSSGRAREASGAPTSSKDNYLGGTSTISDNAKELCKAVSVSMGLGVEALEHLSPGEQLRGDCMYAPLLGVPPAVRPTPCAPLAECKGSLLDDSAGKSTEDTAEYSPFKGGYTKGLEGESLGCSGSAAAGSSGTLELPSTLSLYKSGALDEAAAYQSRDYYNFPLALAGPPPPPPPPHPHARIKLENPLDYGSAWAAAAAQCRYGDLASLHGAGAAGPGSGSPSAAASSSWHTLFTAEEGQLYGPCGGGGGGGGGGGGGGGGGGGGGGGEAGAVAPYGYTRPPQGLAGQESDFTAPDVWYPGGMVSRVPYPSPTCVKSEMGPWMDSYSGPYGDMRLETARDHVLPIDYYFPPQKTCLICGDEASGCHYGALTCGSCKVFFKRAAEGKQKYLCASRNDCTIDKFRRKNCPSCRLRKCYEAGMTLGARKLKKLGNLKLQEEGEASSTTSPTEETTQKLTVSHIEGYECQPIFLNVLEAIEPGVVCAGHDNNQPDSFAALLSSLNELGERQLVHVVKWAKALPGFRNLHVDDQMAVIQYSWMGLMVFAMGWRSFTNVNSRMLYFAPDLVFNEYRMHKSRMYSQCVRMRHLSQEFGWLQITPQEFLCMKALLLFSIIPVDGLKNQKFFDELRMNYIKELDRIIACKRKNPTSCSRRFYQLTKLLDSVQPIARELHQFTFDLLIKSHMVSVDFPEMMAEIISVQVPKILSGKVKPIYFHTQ
Description: Antagonistic activity (IC50) against human androgen receptor (hAR) in co-transfected CV-1 cell

[3] = biological target: T2, Androgen receptor; conditions: cv-1
Description: Agonistic activity against human androgen receptor (hAR) in co-transfected CV-1 cell

[4] = biological target: T2, Androgen receptor; assay: Binding affinity against Androgen receptor transfected into COS cells

SMILES | Efficacy [1] [%] | pIC50 [2] | EC50 [3] | pKi [4]
CC1(C)CCC[C@]2(C)c3cc4c(C(F)(F)F)cc(O)nc4cc3N[C@H]12 | 31 | 7.29 | Not Active | 7.11
CN1c2cc3c(cc2[C@H]2CCCC[C@H]21)c(C(F)(F)F)cc(=O)n3C | < 20 | 7.44 | Not Active | 8.00
C[C@H]1CC[C@H]2Nc3cc4c(cc3[C@H]2C1)c(C(F)(F)F)cc(=O)n4C | < 20 | 7.32 | Not Active | 7.03
